{"source": "patent US8722343B2", "about": "“Methods and compositions for the diagnosis and treatment of diabetes” (priority 2008, dated 2014)", "key": {"αTC1 cells": {"system": "αTC1 cells", "test": "MTT cell viability assay in αTC1 cells", "format": "cell-based, mouse", "description": "1A: Glutamate induces a dose-dependent beta-cell death. […] Data are presented as % Relative Growth Rate (RGR) versus controls (100%) and represent the mean±SE of at least 7 independent experiments (n=6). * p<0.01 vs ctrl; ° p<0.01 vs Glu 5 mM in αTC1.\nαTC1 were cultured in DMEM 25 mM glucose supplemented with 10% heat inactivated fetal bovine serum, 2 mM glutamine, and 100 IU/ml streptomycin/penicillin, as previously described (Galbiati et al, 2002). Experiments were performed between the 33 and 43 passage of cell culture. Cells were cultured under standard humidified conditions of 5% CO2 at 37° C.\n(§1) 3-(4,5-Dimethylthiazol-2-yl)-2,5-diphenyltetrazolium bromide (MTT) assay. βTC3 cells were seeded at a density of 8×10^3 cells/well onto 96-well culture plates. Cells were allowed to attach and grow for 24 h in standard medium. Then medium was replaced with fresh medium containing glutamate, DHK (Dihydrokainic Acid, Sigma Aldrich), glutamate receptor inhibitors APV and CNQX (Sigma Aldrich) or ceftriaxone (Sigma Aldrich) at the indicated concentrations. […] Coloured formazan product was determined spectrophotometrically at 540 nm. 20 islets/tube were used to assess viability in human isolated islets. Data are expressed as % Relative Growth Rate (% RGR) versus control samples."}, "human isolated islets [1]": {"system": "human isolated islets", "test": "MTT viability assay in isolated human islets", "format": "cell-based", "conditions": "5 mM glutamate, three days, 16.7 mM glucose", "description": "7A: MTT assay: 48 hrs after isolation, 20 islets/tube were incubated for three days with the indicated glutamate and DHK concentrations in the presence of 3.3 mM glucose or 16.7 mM glucose and viability was assessed by MTT assay. Data are expressed as % Relative Growth Rate (% RGR) versus control samples and are the means±SE of three different experiments performed in triplicate.\nHuman pancreatic islets were isolated from the pancreases of cadaveric multiorgan donors by using the procedure already described by Ricordi (Ricordi, et al, 1988). The islets used in this study were isolated from eight different organs. After the isolation, the islets were purified from the contaminant exocrine tissue by centrifugation on Ficoll gradients, obtaining a final purity that ranged from 60% to 80%, as assayed by dithizone staining (Ricordi et al, 1988). Islets were then cultured in RPMI 1640 tissue culture medium. […]\n3-(4,5-Dimethylthiazol-2-yl)-2,5-diphenyltetrazolium bromide (MTT) assay. βTC3 cells were seeded at a density of 8×10^3 cells/well onto 96-well culture plates. […] After five days incubation, cell viability was assessed using the MTT method, according to the manufacturer's protocols (Sigma Aldrich). Coloured formazan product was determined spectrophotometrically at 540 nm. […] Data are expressed as % Relative Growth Rate (% RGR) versus control samples."}, "βTC3 cells [2]": {"system": "βTC3 cells", "test": "TUNEL apoptosis assay in βTC3 cells", "format": "cell-based", "conditions": "0.5 mM glutamate for 5 days", "description": "1B: Glutamate overstimulation causes increased β-cell apoptosis. 24 hours after plating, βTC3 cells were incubated for five days with 0.5 mM glutamate, and cell apoptosis was assessed by TUNEL assay. The cell nuclei were labelled with PrI. Histograms on the right represent TUNEL positive cells per field, and are the mean±SE of two independent experiments performed in duplicate.\n6C TUNEL assay: 24 hours after plating, βTC3 cells were incubated for five days with 0.1 mM DHK, and cell apoptosis was assessed by TUNEL assay. Cell nuclei were labelled with PrI. Data are presented as TUNEL positive cells per field (histograms on the right), and are the mean±SE of two independent experiments performed in duplicate. * P<0.05\n(§2) 6D ShRNA interference. βTC3 cells were transfected with two different shRNA directed against GLT1 (Sh1, Sh3) or a control shRNA (ShC), and three days after transfection, cells were assayed for 3[H]-D-aspartate uptake (b) or lysed and the presence of GLT assayed by western blotting (a) or fixed and processed for TUNEL (c).\nApoptosis of β-TC3 cells was estimated using the terminal deoxynucleotidyltransferase-mediated dUTP-biotin nick end-labelling assay (TUNEL). […] Tunel-positive cells were counted by two independent observers using a 40× objective from at least 40 randomly selected fields per coverslip. […]"}, "βTC3 cells [3]": {"system": "βTC3 cells", "test": "MTT cell viability assay in βTC3 cells", "format": "cell-based, mouse", "description": "1A: Glutamate induces a dose-dependent beta-cell death. 24 hrs after plating, αTC1 and βTC3 cells were incubated for five days with the indicated glutamate concentrations and viability was assessed by MTT assay. Data are presented as % Relative Growth Rate (RGR) versus controls (100%) and represent the mean±SE of at least 7 independent experiments (n=6). * p<0.01 vs ctrl; ° p<0.01 vs Glu 5 mM in αTC1.\n1C: β-cell death is prevented by pharmacological inhibition of ionotropic channels. 24 hrs after plating, αTC1 and βTC3 cells were incubated for five days with 0.025 mM CNQX (left panel) or 0.1 mM APV (right panel), in the presence or the absence of 5 mM glutamate and viability was assessed by MTT assay. Data are presented as % RGR versus control samples (100%) and represent the mean±SE of three independent experiments (n=5). * p<0.05\n6B. MTT assay. 24 hrs after plating, αTC1 and βTC3 cells were incubated for five days with different DHK concentrations and viability was assessed by MTT assay. Data are presented as % RGR versus control (100%) and represent the mean±SE of three independent experiments (n=8). * (DHK versus control) p<0.05\n8B: MTT assay: 24 hrs after plating, βTC3 cells were incubated for five days with the indicated ceftriaxone concentrations in the presence or absence of 5 mM glutamate and viability was assayed by MTT assay. Data are presented as % RGR versus control (100%) and represent the mean±SE of three independent experiments (n=8). *(ceftriaxone versus relative control) p<0.05.\nβTC3 and αTC1 cells were derived from progeny of transgenic mice expressing SV40 large T-antigen under control of the rat insulin II 5′-flanking region or rat preproglucagon 5′-flanking region, respectively (Powers et al, 1990) and were originally provided by Douglas Hanahan (Department of Biochemistry and Biophysics, University of California, San Francisco, Calif.). βTC3 were grown in RPMI 1640 11 mM glucose, supplemented with 10% heat inactivated fetal bovine serum, 2 mM L-glutamine, and 100 IU/ml streptomycin/penicillin, as previously described (Galbiati et al, 2002). Experiments were performed between the 27 and 33 passage of cell culture.\nas §1"}, "human isolated islets [4]": {"system": "human isolated islets", "format": "cell-based", "conditions": "16.7 mM glucose; DHK (0.3 mM) or L-glutamate (0.5 mM) alone", "description": "FIG. 5: GLT1 CONTROLS HORMONE SECRETION IN HUMAN ISOLATED ISLETS. 48 hours after isolation, 20 human islets per tube were exposed to 3.3 or 16.7 mM glucose in the absence and the presence of either L-glutamate (0.5 mM), DHK (0.3 mM) or both L-glutamate and DHK, and insulin secretion measured. Levels of secreted insulin from islets were normalized to total insulin content. Data are expressed as % of insulin content and represent the mean±SD of two independent experiments performer in duplicate.\nInsulin content and secretion were assessed on 20 islets, using a Micro-particle Enzyme Immunoassay (MEIA insulin, IMX System, Abbott Laboratories, Abbott Park, Ill., USA). Insulin secretion in response to increasing glucose concentrations, glutamate or DHK treatment was assessed by static incubation as previously described (Federici et al, 2000). Briefly, batches of 20 islets were pre-incubated in 1 ml of Krebs-Ringer buffer (KRB) supplemented with 3, 3 or 16.7 mM glucose for 30 min. Then the supernatants were replaced with Kreb's buffer containing 3, 3 or 16.7 mM glucose plus glutamate or the specific GLT1 inhibitor DHK (Sigma, St Louis, Mo., USA), as indicated. After a 30-min incubation at 37° C., the medium was removed and frozen for immunoassays. At the end of incubation, islets were lysed in lyses buffer and the total insulin content determined by immunoassay. […]"}, "GLT1": {"system": "GLT1", "test": "GLT1 expression in βTC3 cells by western blotting", "format": "cell-based, mouse", "conditions": "10 μM ceftriaxone, five days", "description": "as §2\n8A: GL1 expression. 150.000 cells were plated on […] diameter Petri dishes and 24 hours after plating, they were incubated with 10 μM ceftriaxone for five days. After incubation cells were lysed and 100 μg of whole lysate extracts were separated onto a 9% SDS-PAGE and the expression of glutamate transporter was detected using specific anti-GLT1 or anti-β-catenin antibodies. The expression of GLT1 was quantified by densitometry, and normalized over β-catenin content. Shown is a representative experiment; Similar results were obtained in two other independent experiments.\nβTC3 or αTC1 cells were seeded onto 6-cm tissue culture plates and allowed to attach and grow until confluence. […] After 1 h at 4 C, lysates were centrifuged at 13,000 rpm for 10 min, and 50 μg of total extracted proteins were analyzed on 9% SDS-PAGE and transferred onto nitrocellulose (Shleicher and Shull, Dassel, Germany). […] The signal intensities were densitometrically quantified using Scion Image software. […]"}, "[5]": {"conditions": "acute exposure (15 min, 0.5 μM glutamate) or exposure for 2 days"}}, "data": [{"smiles": "N[C@@H](CCC(=O)O)C(=O)O", "note": "[glutamate]", "values": [{"measurement": "glutamate toxicity (cell viability)", "setting": "αTC1 cells; 0.05 to 5 mM glutamate, five days", "result": "detectable only at the highest glutamate concentration (5 mM)"}, {"measurement": "effect on cell survival", "setting": "αTC1 cells; [5]", "result": "did not find any effect"}, {"measurement": "RGR decrease (cell viability)", "setting": "human isolated islets [1]", "result": 18, "unit": "%"}, {"measurement": "number of TUNEL positive cells", "setting": "βTC3 cells [2]", "result": "significant increase"}, {"measurement": "reduction in RGR (cell viability)", "setting": "βTC3 cells [3]; 0.05 mM glutamate, five days", "result": "11.53 ± 0.52", "unit": "%"}, {"measurement": "reduction in RGR (cell viability)", "setting": "βTC3 cells [3]; 5 mM glutamate, five days", "result": "51.46 ± 2.61", "unit": "%"}, {"measurement": "effect on cell survival", "setting": "βTC3 cells [3]; [5]", "result": "did not find any effect"}, {"measurement": "effect on insulin secretion", "setting": "human isolated islets [4]", "result": "No effect"}]}, {"smiles": "CO/N=C(\\C(=O)N[C@@H]1C(=O)N2C(C(=O)O)=C(CSc3nc(=O)c(=O)[nH]n3C)CS[C@H]12)c1csc(N)n1", "note": "[ceftriaxone]", "values": [{"measurement": "GLT1/EAAT2 transporter expression", "setting": "GLT1", "result": "increased transporter's expression"}, {"measurement": "protection from glutamate toxicity", "setting": "βTC3 cells [3]; five days with ceftriaxone, 5 mM glutamate", "result": "dose-dependent protection"}]}, {"smiles": "N#Cc1cc2c(cc1[N+](=O)[O-])=NC(=O)C(=O)N=2", "note": "[CNQX, 6-Cyano-7-nitroquinoxaline-2,3-dione]", "values": [{"measurement": "increase in RGR relative to 5 mM glutamate", "setting": "βTC3 cells [3]; 0.025 mM CNQX with 5 mM glutamate, five days", "result": 30, "unit": "%"}, {"measurement": "prevention of vulnerability of β-cells to glutamate", "setting": "βTC3 cells [3]; co-administration with 5 mM glutamate, five days, 0.025 mM CNQX or 0.1 mM APV", "result": "partially prevented"}]}]}
